In US20050009894A1 (Aventis Pharma S.A., priority 2001, published 2005):

The compounds below were run against T1, human KDR enzyme (Homo sapiens, UniProt P35968) (assay: Phosphorylation of the substrate PLCγ by the enzyme KDR in vitro (flashplate technique)). Conditions: Table VII, degrees of activity by IC50 range; read-out: Activity.
T1 construct: The cytoplasmic domain of human KDR enzyme is cloned in the form of a GST fusion; GST; made in house; host or cells: SF21 insect cells (baculovirus, pFastBac)
Format: biochemical
Experimental: The inhibitory effect of the compounds is determined in a test of phosphorylation of a substrate by the enzyme KDR in vitro by the flasplate technique (96-well plate, NEN). The cytoplasmic domain of human KDR enzyme is cloned in the form of a GST fusion into the baculovirus expression vector pFastBac. The protein is expressed in the SF21 cells and purified to about 60% homogeneity.
The kinase activity of KDR is measured in 20 mM MOPS, 10 mM MgCl2, 10 mM MnCl2, 1 mM DTT, 2.5 mM EGTA, 10 mM β-glycerophosphate, pH 7.2 in the presence of 10 mM MgCl2, 100 μM Na3VO4, 1 mM NaF. 10 μl of the compound are added to 70 μl of kinase buffer containing 100 ng of KDR enzyme at 4° C. The reaction is initiated by adding 20 μl of solution containing 2 μg of substrate (fragment SH2-SH3 of PLCγ expressed in the form of a GST fusion protein), 2 μCi γ33P[ATP] and 2 μM cold ATP. After incubating for 1 h at 37° C., the reaction is quenched by adding 1 volume (100 μl) of 200 mM EDTA. The incubation buffer is removed and the wells are washed three times with 300 μl of PBS. The radioactivity is measured in each well using a Top Count NXT instrument (Packard).
Background noise is determined by measuring the radio-activity in wells in quadruplet containing radioactive ATP and the substrate alone.
An activity control is measured in wells in quadruplet containing all the reagents (γ33P-[ATP], KDR and the substrate PLCγ) and in the absence of compound.
The inhibition of the KDR activity with the compound of the invention is expressed as a percentage of inhibition of the control activity determined in the absence of compound.
The compound SU5614 (Calbiochem) (1 μM) is included in each plate as inhibition control.
The IC50 values for the compounds are calculated by plotting the dose-response curves. The IC50 corresponds to the concentration of compound that induces a 50% inhibition of the kinase activity.

T1 sequence (P35968 786-1356 limits assumed): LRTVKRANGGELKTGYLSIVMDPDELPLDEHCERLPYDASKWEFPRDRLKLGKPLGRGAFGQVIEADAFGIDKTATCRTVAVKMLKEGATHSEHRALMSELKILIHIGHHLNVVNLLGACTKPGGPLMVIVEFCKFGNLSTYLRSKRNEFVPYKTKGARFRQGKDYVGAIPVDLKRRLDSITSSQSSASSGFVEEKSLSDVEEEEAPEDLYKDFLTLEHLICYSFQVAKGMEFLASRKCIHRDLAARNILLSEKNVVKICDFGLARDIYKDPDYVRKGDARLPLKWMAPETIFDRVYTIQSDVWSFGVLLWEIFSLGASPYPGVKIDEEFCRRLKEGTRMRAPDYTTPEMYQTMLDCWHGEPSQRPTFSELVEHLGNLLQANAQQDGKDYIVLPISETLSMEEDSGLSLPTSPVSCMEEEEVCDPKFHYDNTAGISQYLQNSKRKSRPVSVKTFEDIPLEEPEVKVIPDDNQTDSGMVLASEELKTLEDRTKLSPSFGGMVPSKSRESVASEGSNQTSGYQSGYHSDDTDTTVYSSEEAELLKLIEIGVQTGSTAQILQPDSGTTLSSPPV

Question: How did the IC50 turn out when `O=C1CCc2cc(C(=O)COc3cc(-c4nc5ccccc5[nH]4)[nH]n3)ccc2N1` [Example 209, 6-{2-[5-(1H-Benzoimi-dazol-2-yl)-1H-pyrazol-3-yloxy]-acetyl}-3,4-dihydro-1H-quinolin-2-one] was run?
Answer: > 3 µM

Question: With `Cn1cc(CNC(=O)c2ccc3[nH]c(-c4n[nH]c5ccccc45)nc3c2)cn1` [Example 51, 2-(1H-Indazol-3-yl)-1H-benzoimidazole-5-carboxylic acid (1-methyl-1H-pyrazol-4-ylmethyl)-amide] as the compound, how does the IC50 read?
Answer: 0.3 to 3 µM

Question: With `c1ccc2c(-c3ccc4nc(-c5[nH]nc6ccccc56)[nH]c4c3)cccc2c1` [Example 99, 3-(6-Naphthalen-1-yl-1H-benzoimidazol-2-yl)-2H-indazole] as the compound, how does the IC50 read?
Answer: > 3 µM

Question: Which IC50 does the source give for `c1ccc(-c2ccc(COc3cc(-c4nc5ccccc5[nH]4)[nH]n3)cc2)cc1` [Example 193, 2-[5-(Biphenyl-4-ylmethoxy)-2H-pyrazol-3-yl]-1H-benzoimidazole] here?
Answer: 0.3 to 3 µM

Question: With `CNC(=O)c1ccc2[nH]c(-c3n[nH]c4ccccc34)nc2c1` [Example 148, 2-(1H-Indazol-3-yl)-1H-benzoimidazole-5-carboxylic acid methylamide] as the compound, how does the IC50 read?
Answer: 0.3 to 3 µM

Question: With `O=C(Oc1cc(-c2nc3ccccc3[nH]2)[nH]n1)c1ccc(-c2ccccc2)cc1` [Example 225, Biphenyl-4-carboxylic acid 5-(1H-benzoimidazol-2-yl)-1H-pyrazol-3-yl ester] as the compound, how does the IC50 read?
Answer: > 3 µM

Question: For `FC(F)(F)c1cccc(-c2ccc3nc(-c4[nH]nc5ccccc45)[nH]c3c2)c1` [Example 111, 3-[6-(3-Trifluoromethyl-phenyl)-1H-benzoimidazol-2-yl]-2H-indazole], which IC50 is on record?
Answer: > 3 µM

Question: With `COc1ccc(-c2ccc3nc(-c4[nH]nc5ccccc45)[nH]c3c2)cc1` [Example 102, 3-[6-(4-Methoxy-phenyl)-1H-benzoimidazol-2-yl]-2H-indazole] as the compound, how does the IC50 read?
Answer: 0.3 to 3 µM

Question: `O=C(COCc1ccccc1)Oc1cc(-c2nc3ccccc3[nH]2)[nH]n1` [Example 216, Benzyloxy-acetic acid 5-(1H-benzoimidazol-2-yl)-1H-pyrazol-3-yl ester] was tested. Which IC50 did it give?
Answer: > 3 µM

Question: How did the IC50 turn out when `O=C(NCc1ccc(Cl)cc1)c1ccc2[nH]c(-c3n[nH]c4ccccc34)nc2c1` [Example 168, 2-(1H-Indazol-3-yl)-1H-benzoimidazole-5-carboxylic acid 4-chloro-benzylamide] was run?
Answer: < 0.3 µM

Question: Which IC50 does the source give for `Cc1ccccc1CNC(=O)c1ccc2[nH]c(-c3n[nH]c4ccccc34)nc2c1` [Example 45, 2-(1H-Indazol-3-yl)-1H-benzoimidazole-5-carboxylic acid 2-methyl-benzylamide] here?
Answer: < 0.3 µM

Question: For `O=C(NCc1ccc(-c2ccc(F)cc2)cc1)c1ccc2[nH]c(-c3n[nH]c4ccccc34)nc2c1` [Example 164], which IC50 is on record?
Answer: > 3 µM

Question: How did the IC50 turn out when `O=C(NCc1ccc(C(F)(F)F)nc1)c1ccc2[nH]c(-c3n[nH]c4ccccc34)nc2c1` [Example 172, 2-(1H-Indazol-3-yl)-1H-benzoimidazole-5-carboxylic acid (6-trifluoromethyl-pyridin-3-ylmethyl)-amide] was run?
Answer: 0.3 to 3 µM

Question: Which IC50 does the source give for `O=C(NCc1cccc(OC(F)(F)F)c1)c1ccc2[nH]c(-c3n[nH]c4ccccc34)nc2c1` [Example 49, 2-(1H-Indazol-3-yl)-1H-benzoimidazole-5-carboxylic acid 3-trifluoromethoxy-benzylamide] here?
Answer: 0.3 to 3 µM

Question: With `CC(=O)Nc1ccc(CNC(=O)c2ccc3[nH]c(-c4n[nH]c5ccccc45)nc3c2)cc1` [Example 147, 2-(1H-Indazol-3-yl)-1H-benzoimidazole-5-carboxylic acid 4-acetylamino-benzylamide] as the compound, how does the IC50 read?
Answer: 0.3 to 3 µM

Question: With `O=C(NCc1ccc(Oc2ccccc2)cc1)c1cccc2nc(-c3n[nH]c4ccccc34)[nH]c12` [Example 84, 2-(1H-Indazol-3-yl)-3H-benzoimidazole-4-carboxylic acid 4-phenoxy-benzylamide] as the compound, how does the IC50 read?
Answer: > 3 µM

Question: How did the IC50 turn out when `O=C(NCc1cccc(Cl)c1)c1cccc2nc(-c3n[nH]c4ccccc34)[nH]c12` [Example 93, 2-(1H-Indazol-3-yl)-3H-benzoimidazole-4-carboxylic acid 3-chloro-benzylamide] was run?
Answer: > 3 µM

Question: With `CC(=O)c1ccc(-c2ccc3nc(-c4[nH]nc5ccccc45)[nH]c3c2)s1` [Example 128, 1-{5-[2-(2H-Indazol-3-yl)-3H-benzoimidazol-5-yl]-thiophen-2-yl}-ethanone] as the compound, how does the IC50 read?
Answer: 0.3 to 3 µM

Question: Which IC50 does the source give for `Clc1cc(Cl)cc(-c2ccc3nc(-c4[nH]nc5ccccc45)[nH]c3c2)c1` [Example 104, 3-[6-(3,5-Dichloro-phenyl)-1H-benzoimidazol-2-yl]-2H-indazole] here?
Answer: > 3 µM

Question: `O=C(NCc1ccc(Cl)nc1)c1ccc2[nH]c(-c3n[nH]c4ccccc34)nc2c1` [Example 56, 2-(1H-Indazol-3-yl)-1H-benzoimidazole-5-carboxylic acid (6-chloro-pyridin-3-ylmethyl)-amide] was tested. Which IC50 did it give?
Answer: < 0.3 µM

Question: With `O=C(Oc1cc(-c2nc3ccccc3[nH]2)[nH]n1)c1ccccc1` [Example 217, Benzoic acid 5-(1H-benzoimidazol-2-yl)-1H-pyrazol-3-yl ester] as the compound, how does the IC50 read?
Answer: 0.3 to 3 µM

Question: Which IC50 does the source give for `c1ccc2[nH]c(-c3cc(OCCN4CCOCC4)n[nH]3)nc2c1` [Example 195, 2-[5-(2-Morpholin-4-yl-ethoxy)-2H-pyrazol-3-yl]-1H-benzoimidazole] here?
Answer: > 3 µM

Question: For `O=C(O)CCc1ccc(-c2ccc3nc(-c4[nH]nc5ccccc45)[nH]c3c2)cc1` [Example 140, 3-{4-[2-(2H-Indazol-3-yl)-3H-benzoimidazol-5-yl]-phenyl}-propionic acid], which IC50 is on record?
Answer: > 3 µM

Question: `O=C(NCc1ccoc1)c1ccc2[nH]c(-c3n[nH]c4ccccc34)nc2c1` [Example 66, 2-(1H-Indazol-3-yl)-1H-benzoimidazole-5-carboxylic acid (furan-3-ylmethyl)-amide] was tested. Which IC50 did it give?
Answer: 0.3 to 3 µM

Question: With `CC(C)NC(=O)c1ccc2[nH]c(-c3n[nH]c4ccccc34)nc2c1` [Example 149, 2-(1H-Indazol-3-yl)-1H-benzoimidazole-5-carboxylic acid isopropylamide] as the compound, how does the IC50 read?
Answer: 0.3 to 3 µM

Question: With `O=C(NCc1cccnc1)c1cccc2nc(-c3n[nH]c4ccccc34)[nH]c12` [Example 80, 2-(1H-Indazol-3-yl)-3H-benzoimidazole-4-carboxylic acid (pyridin-3-ylmethyl)-amide] as the compound, how does the IC50 read?
Answer: 0.3 to 3 µM

Question: With `CC(C)=CCC/C(C)=C/COc1cc(-c2nc3ccccc3[nH]2)[nH]n1` [Example 184, 2-[5-(3,7-Dimethyl-octa-2,6-dienyloxy)-2H-pyrazol-3-yl]-1H-benzoimidazole] as the compound, how does the IC50 read?
Answer: 0.3 to 3 µM

Question: For `Clc1ccc(COc2cc(-c3nc4ccccc4[nH]3)[nH]n2)cc1Cl` [Example 188, 2-[5-(3,4-Dichloro-benzyloxy)-2H-pyrazol-3-yl]-1H-benzoimidazole], which IC50 is on record?
Answer: 0.3 to 3 µM

Question: How did the IC50 turn out when `O=C(NCC1COc2ccccc2O1)c1ccc2[nH]c(-c3n[nH]c4ccccc34)nc2c1` (stereo not drawn) [Example 65, 2-(1H-Indazol-3-yl)-1H-benzoimidazole-5-carboxylic acid (2,3-dihydro-benzo[1,4]dioxin-2-ylmethyl)-amide] was run?
Answer: 0.3 to 3 µM

Question: Which IC50 does the source give for `CCC(=O)COc1cc(-c2nc3ccccc3[nH]2)[nH]n1` [Example 201, 1-[5-(1H-Benzoimidazol-2-yl)-1H-pyrazol-3-yloxy]-butan-2-one] here?
Answer: > 3 µM

Question: For `O=C(COc1cc(-c2nc3ccccc3[nH]2)[nH]n1)Nc1ccccc1` [Example 204, 2-[5-(1H-Benzoimidazol-2-yl)-1H-pyrazol-3-yloxy]-N-phenyl-acetamide], which IC50 is on record?
Answer: > 3 µM

Question: With `Cc1ccc(-c2ccc3nc(-c4[nH]nc5ccccc45)[nH]c3c2)cc1C` [Example 116, 3-[6-(3,4-Dimethyl-phenyl)-1H-benzoimidazol-2-yl]-2H-indazole] as the compound, how does the IC50 read?
Answer: > 3 µM

Question: For `O=C(c1ccc2[nH]c(-c3n[nH]c4ccccc34)nc2c1)N1CCOCC1` [Example 150, [2-(1H-Indazol-3-yl)-1H-benzoimidazol-5-yl]-morpholin-4-yl-methanone], which IC50 is on record?
Answer: 0.3 to 3 µM

Question: `c1ccc(COc2ccc(-c3ccc4nc(-c5[nH]nc6ccccc56)[nH]c4c3)cc2)cc1` [Example 130, 3-[6-(4-Benzyloxy-phenyl)-1H-benzoimidazol-2-yl]-2H-indazole] was tested. Which IC50 did it give?
Answer: > 3 µM

Same assay, conditions: product tested at 10 μM; read-out: % of inhibition of the phosphorylation of PLCγ by KDR (product tested at a concentration of 10 μM)

Question: `CCNC(=O)c1ccc2[nH]c(-c3n[nH]c4ccccc34)nc2c1` [Example 3, 2-(1H-Indazol-3-yl)-1H-benzimidazole-5-carboxylic acid N-ethylamide] was tested. Which inhibition at 10 µM did it give?
Answer: 91.8%

Same assay, conditions: read-out: IC50 (μM) on inhibition of the phosphory-lation of PLCγ by KDR

Question: `O=C(NCc1ccccc1)c1ccc2nc(-c3n[nH]c4ccccc34)[nH]c2c1` [Example 1, 2-(1H-Indazol-3-yl)-1H-benzimidazole-5-carboxylic acid benzylamide] was tested. Which IC50 did it give?
Answer: 0.47 µM
